Data set [1] relates to P. falciparum NF54 ring-stage synchronized cultures. Nature of the data set: In vitro activity against P. falciparum blood stages (flow cytometry, SYBR green I). Format: cell-based, Plasmodium falciparum. To be noted: Control = 7.76333, 48 h. Here is the method:
Activity against the blood stage of P. falciparum infection was assessed by flow cytometry analysis following the incubation of either test compounds or the drug vehicle (DMSO) with ring-stage synchronized parasite cultures, as previously described. Stock solutions of the test compounds, as well as of the positive control compound chloroquine, were prepared in DMSO and diluted to test concentrations in complete malaria culture medium (CMCM), i.e., 1640 RPMI medium supplemented with 25 mM HEPES, 2.4 mM L-glutamine, 50 µg/mL gentamicin, 0.5% w/v Albumax, 11 mM glucose, 1.47 mM hypoxanthine, and 37.3 mM NaHCO3. Samples at tested concentration were then incubated with ring-stage synchronized cultures of P. falciparum NF54 at 2.5% hematocrit and at approximately 1% parasitemia in 96-well plates at 37 °C in a 5% CO2 and 5% O2 atmosphere. Forty-eight hours post incubation, parasite load was assessed by flow cytometry, upon staining with the DNA-specific dye SYBR green I. Approximately 100,000 events were analyzed in each flow cytometry measurement.
On the technique in general: A flow cytometer gives signals particle by particle.

Data set [2] deals with Huh-7 cell line. Briefly: Huh-7 cell confluency by alamarBlue assay during hepatic-stage test. Type of data set: cell-based. The protocol: (§1) Activity against the hepatic stage of P. berghei infection was assessed using the human hepatoma cell line Huh-7 (deposited at the Japanese Collection of Research Bioresources under JCRB0403). The protocol was previously comprehensively described by Prudêncio et al. and by Ploemen et al.. Briefly, cell culture medium consisted of 1640 RPMI medium supplemented with 10% v/v fetal calf serum, 1% v/v L-glutamine, 1% v/v nonessential amino acids, 1% v/v penicillin/streptomycin, and 10 mM HEPES, pH 7. Cells were seeded in 96-well plates at a density of 1 × 10^4 cells per well in 100 µL of culture medium and incubated at 37 °C with 5% CO2 for approximately 18 h. […] The culture medium was substituted by infection medium with diluted compounds 1 hour in advance of infection. Luciferase-expressing P. berghei sporozoites (PbA-LuciGFPcon spz) were freshly obtained through the dissection of salivary glands from infected female Anopheles stephensi mosquitoes. Sporozoites were added to the cells at 1:1 ratio, i.e., 1 × 10^4 sporozoites were added per well, and then subjected to centrifugation at 1800× g for 5 min. The plate was then incubated for 46 h at 37 °C with 5% CO2, at which time Huh-7 cell confluency was indirectly assessed by the alamarBlue assay (Invitrogen, Waltham, MA, USA), as reported in the manufacturer’s protocol. Parasite load was assessed 48 h post-infection by a bioluminescence assay, as reported by the manufacturer (Biotium, Fremont, CA, USA). GraphPad Prism 8 (GraphPad Software, Inc., La Jolla, CA, USA) was used to obtain IC50 values using nonlinear regression analysis to fit the dose-response curves normalized results.

The subject of data set [3] is hepatic stage of P. berghei. Nature of the data set: In vitro activity against P. berghei hepatic stages (luciferase-expressing sporozoites in Huh-7 cells, bioluminescence). Type of data set: cell-based, Plasmodium berghei. To be noted: Plasmodium berghei, Huh-7, 48 h; for activity at 1 µM / activity at 10 µM: DMSO = 100, read-out: INFECTION Ø screening. The protocol:
as §1, with “Briefly, cell culture medium consisted of 1640 RPMI medium supplemented with 10% v/v fetal calf serum, 1% v/v L-glutamine, 1% v/v nonessential amino acids, 1% v/v penicillin/streptomycin, and 10 mM HEPES, pH 7.” left out

The subject of data set [4] is HepG2 cells. Nature of the data set: Cytotoxicity assessment in vitro (MTT assay). Format: cell-based. Particulars: c = 10 μM, in %. Here is the method: (§2) HepG2 cells of human hepatocellular carcinoma (ATCC HB-8065; passage 20–25), purchased from Health Protection Agency Culture Collections (ECACC, Salisbury, UK), were cultured in Minimum Essential Medium Eagle supplemented with 10% v/v fetal bovine serum and 1% v/v L-glutamine solution (Sigma-Aldrich, St. Louis, MO, USA) at 37 °C in a humidified atmosphere containing 5% CO2. For passaging, the cells were treated with trypsin/EDTA (Sigma-Aldrich, St. Louis, MO, USA) at 37 °C and then harvested. For the cytotoxicity evaluation, the cells treated with the test substances were used, while untreated HepG2 cells served as a control group. The cells were seeded in a 96-well plate at a density of 1 × 10^4 cells per well and incubated for 24 h. All tested compounds were dissolved in DMSO to prepare 10 mM stock solutions and diluted to the desired concentration just before the cell treatment. Cytotoxicity of all studied derivatives was screened at 10 μM concentration, and all samples were measured in triplicates. Positive and negative controls were also included. Plates were incubated for 24 h in a humidified atmosphere containing 5% CO2 at 37 °C. After the incubation, a solution of thiazolyl blue tetrazolium bromide (Sigma-Aldrich, St. Louis, MO, USA) in RPMI 1640 medium without phenol red (BioTech, Prague, Czech Republic) was added and incubated for 3 h in a humidified atmosphere containing 5% CO2 at 37 °C. Afterwards, formazan crystals were dissolved in DMSO, and the absorbance of samples was recorded at 570 nm (Synergy Neo2 Multi-Mode Reader NEO2SMALPHAB; BioTek, Winooski, VT, USA).
For orientation: Tetrazolium dyes change colour on reduction, which living cells bring about.

A short description of data set [5]: Cytotoxicity assessment in vitro (MTT assay). To be noted: human, HepG2 cells; c = 10 µM, 24 h, MTT; read-out: HepG2 % of cell viability compared to non-treated control (100%). Format: cell-based. Here is the method:
as §2

Setting [6] is: at 1 μM, DMSO = 100, in % (unit assumed).
The mark [7] stands for this setting: at 10 μM, DMSO = 100, in % (unit assumed).

In the case of `CCN(CC)CCCC(C)Nc1ccnc2cc(Cl)ccc12` (centres unmarked) [CQ, chloroquine, reference compound], the “Ø screening, blood stage parasite load” value in data set [1] (at 10 nM) was 8.54; in data set [1] (at 500 nM), 2.057; in data set [1] (at 100 nm) it was 2.187.
In the case of `COc1cccc(C(=O)OC2CN3Cc4cc5c(cc4C24C=CC(OC)CC34)OCO5)c1` (centres unmarked) [29f, 11-O-(3-methoxybenzoyl)haemanthamine], the “CELL CONFLUENCY Ø screening” value is listed as 130.9 in data set [2] (setting [6]) and 134.6 in data set [2] (setting [7]). Also, in data set [3], the activity at 1 µM worked out at 76.1%. Moreover, the activity at 10 µM in data set [3] amounted to 29.8%.
For the compound `COC1C=CC23c4cc5c(cc4CN(CC2OC(=O)c2cccc([N+](=O)[O-])c2)C3C1)OCO5` (centres unmarked) [29j, 11-O-(3-nitrobenzoyl)haemanthamine], the “CELL CONFLUENCY Ø screening” value in data set [2] (human, 46 h, 1 µM, pH 7) is reported as 100.8. Also, the “CELL CONFLUENCY Ø screening” value in data set [2] (human, 46 h, 10 µM, pH 7) is 94.5. Also, in data set [3], the activity at 1 µM is 78.2% and the activity at 10 µM was found to be 48.5%.
As for `COc1cc(NC(C)CCCN)c2ncccc2c1` (centres unmarked) [Primaquine, reference compound], the IC50 in data set [3] (read-out: IC50 P. berghei) came out at 5.74 ± 0.86 µM.
For `COc1ccccc1C(=O)OC1CN2Cc3cc4c(cc3C13C=CC(OC)CC23)OCO4` (centres unmarked) [29e, 11-O-(2-methoxybenzoyl)haemanthamine], the “CELL CONFLUENCY Ø screening” value in data set [2] (human, 46 h, 1 µM, pH 7) came out at 124.9; in data set [2] (human, 46 h, 10 µM, pH 7), 167.5. The activity at 1 µM in data set [3] was determined as 67.6%. The activity at 10 µM in data set [3] is 28.8%.
As to `COC1C=CC23c4cc5c(cc4CN(CC2OC(=O)C(C)C)C3C1)OCO5` (centres unmarked) [29b, 11-O-isobutanoylhaemanthamine], the “CELL CONFLUENCY Ø screening” value in data set [2] (setting [6]) was 106.7. Moreover, in data set [2] (setting [7]), the “CELL CONFLUENCY Ø screening” value is on record as 111.9. In data set [3], the activity at 1 µM is 71.4% and the activity at 10 µM amounted to 70.6%.
For the compound `COc1cc(OC)cc(C(=O)OC2CN3Cc4cc5c(cc4C24C=CC(OC)CC34)OCO5)c1` (centres unmarked) [29i, 11-O-(3,5-dimethoxybenzoyl)haemanthamine], the “CELL CONFLUENCY Ø screening” value in data set [2] (human, 46 h, 1 µM, pH 7) came out at 123.1. Moreover, the “CELL CONFLUENCY Ø screening” value in data set [2] (human, 46 h, 10 µM, pH 7) amounted to 120.8. Also, in data set [3], the activity at 1 µM is 64% and the activity at 10 µM was found to be 27.5%.
`COC1C=CC23c4cc5c(cc4CN(CC2OC(=O)c2cccc(C)c2)C3C1)OCO5` (centres unmarked) [29c, 11-O-(3-methylbenzoyl)haemanthamine]: in data set [2] (human, 46 h, 1 µM, pH 7), the “CELL CONFLUENCY Ø screening” value worked out at 124.3. In addition, the “CELL CONFLUENCY Ø screening” value in data set [2] (human, 46 h, 10 µM, pH 7) was found to be 135.7. Besides, in data set [3], the activity at 1 µM is 96.8% and the activity at 10 µM was found to be 28.3%.
The corresponding values for `COC1C=CC23c4cc5c(cc4CN(CC2OC(=O)c2ccc(C)cc2)C3C1)OCO5` (centres unmarked) [29d, 11-O-(4-methylbenzoyl)haemanthamine] are 120.6, 113.7, 47.8% and 29%.
The matching figures for `COc1ccc(C(=O)OC2CN3Cc4cc5c(cc4C24C=CC(OC)CC34)OCO5)cc1` (centres unmarked) [29g, 11-O-(4-methoxybenzoyl)haemanthamine]: 95.31, 88.51, 49.1% and 42.6%.
For the compound `CCC(=O)OC1CN2Cc3cc4c(cc3C13C=CC(OC)CC23)OCO4` (centres unmarked) [29a, 11-O-propionylhaemanthamine], in data set [2] (setting [6]), the “CELL CONFLUENCY Ø screening” value came to 95.58. Besides, the “CELL CONFLUENCY Ø screening” value in data set [2] (setting [7]) is 90.95. Besides, in data set [3], the activity at 1 µM amounted to 87.6% and the activity at 10 µM is 71.9%.
For the compound `COc1cccc2c1C(=O)c1c(O)c3c(c(O)c1C2=O)C[C@@](O)(C(=O)CO)C[C@@H]3O[C@H]1C[C@H](N)[C@H](O)[C@H](C)O1` [Doxorubicine, reference compound], the “Ø screening, HepG2 (sheet Graphs)” value in data set [4] (DMSO = 100) is reported as 65.91. For the same compound, in data set [4] (replicate 1), the “1. screening of cytotoxic potential, HepG2 cell line” value was 62.5. Further, the “2. screening of cytotoxic potential, HepG2 cell line” value in data set [4] (replicate 2) is listed as 75.09. Further, the “3. screening of cytotoxic potential, HepG2 cell line” value in data set [4] (replicate 3) is on record as 60.13. In data set [5], the viability at 24 h, 10 µM was 66 ± 8%.
On to `COc1ccc(C(=O)OC2CN3Cc4cc5c(cc4C24C=CC(OC)CC34)OCO5)cc1OC` (centres unmarked) [29h, 11-O-(3,4-dimethoxybenzoyl)haemanthamine], for which the “CELL CONFLUENCY Ø screening” value in data set [2] (human, 46 h, 1 µM, pH 7) is recorded as 101.7; in data set [2] (human, 46 h, 10 µM, pH 7), 100.3. For the same compound, the activity at 1 µM in data set [3] is 90.4%. Also, the activity at 10 µM in data set [3] was found to be 46%.
For `COC1C=CC23c4cc5c(cc4CN(CC2OC(=O)c2ccc([N+](=O)[O-])cc2)C3C1)OCO5` (centres unmarked) [29k, 11-O-(4-nitrobenzoyl)haemanthamine], the “CELL CONFLUENCY Ø screening” value in data set [2] (setting [6]) is listed as 104.8. In addition, in data set [2] (setting [7]), the “CELL CONFLUENCY Ø screening” value came to 91.29. In addition, in data set [3], the activity at 1 µM is 63.6% and the activity at 10 µM is 71%.

The IC50 is the point on the concentration scale where inhibition reaches its midpoint. What is called viability is a read-out of living cells in per cent, often relative to untreated cells.

For the origin of these results see paper PMC10056443, “Derivatives of Amaryllidaceae Alkaloid Ambelline as Selective Inhibitors of Hepatic Stage of Plasmodium berghei Infection In Vitro” (Pharmaceutics, 2023).
